Test results from ChEMBL document CHEMBL4813955 (Eur J Med Chem, 2021).
Calls of active or inactive are those of the source. No cut-off for these calls is given here.

Legend:
[1] = target: T1, 5-hydroxytryptamine receptor 2C (Homo sapiens) (UniProt P28335); assay: Displacement of [3H]-Mesulergine from human 5-HT2C receptor at 10 uM incubated for 1 hr by liquid scintillation counting method
T1 sequence (whole entry): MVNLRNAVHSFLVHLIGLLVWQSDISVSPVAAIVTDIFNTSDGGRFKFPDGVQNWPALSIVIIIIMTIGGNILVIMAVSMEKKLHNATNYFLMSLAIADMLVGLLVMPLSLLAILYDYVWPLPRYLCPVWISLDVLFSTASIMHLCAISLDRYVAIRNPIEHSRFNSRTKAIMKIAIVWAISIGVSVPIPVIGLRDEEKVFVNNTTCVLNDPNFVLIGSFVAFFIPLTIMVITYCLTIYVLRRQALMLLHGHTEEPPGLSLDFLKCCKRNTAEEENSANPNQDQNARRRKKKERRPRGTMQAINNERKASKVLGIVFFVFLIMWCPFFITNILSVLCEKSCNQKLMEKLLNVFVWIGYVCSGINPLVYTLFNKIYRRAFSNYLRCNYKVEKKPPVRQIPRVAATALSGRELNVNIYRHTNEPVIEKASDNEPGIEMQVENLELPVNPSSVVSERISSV

[2] = target: D(2) dopamine receptor (Homo sapiens, UniProt P14416); assay: Displacement of [3H]N-methylspiperone from human dopamine D2 receptor at 10 uM incubated for 1 hr by liquid scintillation counting method
Chain of D(2) dopamine receptor (P14416 whole entry): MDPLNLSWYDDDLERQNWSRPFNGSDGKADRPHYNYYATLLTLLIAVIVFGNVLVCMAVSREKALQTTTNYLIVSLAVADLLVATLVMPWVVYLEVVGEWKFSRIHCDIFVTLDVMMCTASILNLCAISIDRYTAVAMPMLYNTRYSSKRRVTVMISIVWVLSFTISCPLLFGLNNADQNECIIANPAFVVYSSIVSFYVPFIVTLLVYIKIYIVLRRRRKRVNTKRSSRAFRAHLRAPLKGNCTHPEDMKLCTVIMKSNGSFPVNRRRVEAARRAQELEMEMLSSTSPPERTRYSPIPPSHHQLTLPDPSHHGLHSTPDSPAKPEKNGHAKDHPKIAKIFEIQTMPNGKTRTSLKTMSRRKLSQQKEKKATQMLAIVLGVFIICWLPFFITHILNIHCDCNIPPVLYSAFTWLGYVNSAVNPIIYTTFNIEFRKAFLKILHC

[3] = target: D(3) dopamine receptor (Homo sapiens, UniProt P35462); assay: Displacement of [3H]N-methylspiperone from human dopamine D3 receptor at 10 uM incubated for 1 hr by liquid scintillation counting method
Chain of D(3) dopamine receptor (P35462 whole entry): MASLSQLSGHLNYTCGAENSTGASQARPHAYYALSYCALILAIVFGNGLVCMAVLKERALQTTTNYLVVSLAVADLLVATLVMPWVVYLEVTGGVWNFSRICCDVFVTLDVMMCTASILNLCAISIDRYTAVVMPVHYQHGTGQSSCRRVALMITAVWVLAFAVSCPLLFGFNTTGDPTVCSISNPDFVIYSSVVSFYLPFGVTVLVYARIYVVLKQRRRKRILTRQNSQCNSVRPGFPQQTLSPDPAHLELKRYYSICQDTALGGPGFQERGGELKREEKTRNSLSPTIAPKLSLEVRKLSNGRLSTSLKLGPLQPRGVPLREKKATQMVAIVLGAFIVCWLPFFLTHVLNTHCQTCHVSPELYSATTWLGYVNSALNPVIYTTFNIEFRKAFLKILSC

[4] = target: T2, D(4) dopamine receptor (Homo sapiens) (UniProt P21917); assay: Displacement of [3H]N-methylspiperone from human dopamine D4 receptor at 10 uM incubated for 1 hr by liquid scintillation counting method
T2 sequence (whole entry): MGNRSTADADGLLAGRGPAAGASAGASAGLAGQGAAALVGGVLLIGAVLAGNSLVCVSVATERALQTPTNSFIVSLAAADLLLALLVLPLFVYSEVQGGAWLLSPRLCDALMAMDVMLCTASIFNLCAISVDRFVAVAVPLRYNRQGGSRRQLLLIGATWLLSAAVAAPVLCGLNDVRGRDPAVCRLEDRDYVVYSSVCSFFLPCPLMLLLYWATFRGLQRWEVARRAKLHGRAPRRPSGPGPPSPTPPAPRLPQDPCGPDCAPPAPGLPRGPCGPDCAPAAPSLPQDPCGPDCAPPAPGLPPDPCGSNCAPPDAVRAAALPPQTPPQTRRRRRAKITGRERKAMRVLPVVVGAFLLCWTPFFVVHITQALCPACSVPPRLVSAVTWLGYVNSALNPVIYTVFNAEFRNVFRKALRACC

Structure (SMILES) | inhibition [1] | inhibition [2] | also measured
OC1c2ccc(F)cc2CC1CCN1CCN(c2ccccn2)CC1 (stereo not given) | inactive |  | 
O=C1CCc2cc(OCCCN3CCN(c4ccccn4)CC3)ccc21 |  | inactive | 
O=C1CCc2cc(C(=O)CCCN3CCN(c4ccccn4)CC3)ccc2N1 | inactive |  | 
O=C1c2ccc(F)cc2CC1CCN1CCN(c2ccccn2)CC1 (stereo not given) | inactive | inactive | 
Nc1ccc(CCCCN2CCN(c3ccccn3)CC2)cc1 | inactive |  | 
O=C1c2ccc(Cl)cc2CC1CCN1CCN(c2ccccn2)CC1 (stereo not given) |  | inactive | inhibition [3]: inactive
O=C1c2ccc(Cl)cc2CC1CCCN1CCN(c2ccccn2)CC1 (stereo not given) |  | inactive | 
O=C1CCc2cc(OCCCN3CCCN(c4ccccn4)CC3)ccc2N1 |  |  | inhibition [4]: inactive
